# Measured values taken from ChEMBL document CHEMBL4814021, “Synthesis, biological evaluation, and correlation of cytotoxicity versus redox potential of 1,4-naphthoquinone derivatives” (Bioorg Med Chem Lett, 2021).
# Columns and labels:
# [1] = Redox potential of compound in phosphate buffer at pH 7.2 by cyclic voltammetry; format: physicochemical
# HeLa = test: Cytotoxicity against human HeLa cells; format: functional, cell-based
# KB = test: Cytotoxicity against human KB cells; format: functional, cell-based
# DNA topoisomerase 1 = target: T1, DNA topoisomerase 1 (Homo sapiens, UniProt P11387); test: Inhibition of DNA topoisomerase 1 (unknown origin)
# T1 sequence (P11387 whole entry): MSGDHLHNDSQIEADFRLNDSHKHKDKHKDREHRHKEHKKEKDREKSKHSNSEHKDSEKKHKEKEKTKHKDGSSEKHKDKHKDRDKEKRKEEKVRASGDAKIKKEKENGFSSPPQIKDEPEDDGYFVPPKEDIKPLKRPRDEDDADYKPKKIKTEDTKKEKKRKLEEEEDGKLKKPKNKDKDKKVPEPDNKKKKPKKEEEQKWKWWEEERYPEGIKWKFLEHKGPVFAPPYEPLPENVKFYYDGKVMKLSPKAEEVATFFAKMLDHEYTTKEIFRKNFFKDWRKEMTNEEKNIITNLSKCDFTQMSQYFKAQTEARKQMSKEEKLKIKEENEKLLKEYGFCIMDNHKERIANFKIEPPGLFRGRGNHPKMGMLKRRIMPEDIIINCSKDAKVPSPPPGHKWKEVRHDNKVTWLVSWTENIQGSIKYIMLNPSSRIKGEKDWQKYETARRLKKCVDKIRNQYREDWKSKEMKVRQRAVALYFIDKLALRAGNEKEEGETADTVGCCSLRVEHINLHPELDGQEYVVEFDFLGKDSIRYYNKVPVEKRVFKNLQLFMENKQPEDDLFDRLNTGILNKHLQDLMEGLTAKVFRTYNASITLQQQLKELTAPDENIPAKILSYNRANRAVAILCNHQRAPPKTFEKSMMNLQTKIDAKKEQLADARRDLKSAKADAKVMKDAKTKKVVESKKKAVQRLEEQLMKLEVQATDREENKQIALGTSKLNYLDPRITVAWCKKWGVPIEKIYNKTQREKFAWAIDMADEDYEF
Activity [1] [V],IC50 (DNA topoisomerase 1) [µM],Structure (SMILES),IC50 (HeLa) [µM],IC50 (KB) [µM]
-0.165,48,COc1cccc2c1C(=O)C=CC2=O,21.7,23.8
-0.304,,CCOC1=CC(=O)c2ccccc2C1=O,23.8,16.9
-0.208,,CC(=O)Oc1cccc2c1C(=O)C=CC2=O,6.48,1.39
-0.16,,O=C1C=CC(=O)c2c(OCc3ccccc3)cccc21,13.8,8.48
-0.192,,O=C1C=CC(=O)c2cc(O)ccc21,7.06,13.3
-0.146,,CS(=O)(=O)OC1=CC(=O)c2ccccc2C1=O,7.61,7.18
-0.207,53.7,O=C1C=CC(=O)c2cc(OCc3ccccc3)ccc21,16.8,26.2
-0.196,,COc1ccc2c(c1)C(=O)C=CC2=O,22.7,33.9
-0.413,,C/C=C/C(=O)OC1=CC(=O)c2ccccc2C1=O,37.9,64.2
-0.368,,O=C(OC1=CC(=O)c2ccccc2C1=O)c1ccccc1,55,36.9
-0.166,> 100,O=C(Oc1ccc2c(c1)C(=O)C=CC2=O)c1cccs1,8.86,18.3
-0.395,,O=C1C=C(Oc2ccco2)C(=O)c2ccccc21,37,53.4
-0.213,,O=C(Oc1cccc2c1C(=O)C=CC2=O)c1ccco1,12.5,13.4
-0.154,> 100,Cc1ccc(S(=O)(=O)Oc2ccc3c(c2)C(=O)C=CC3=O)cc1,15.1,16.4
-0.151,,Cc1ccc(S(=O)(=O)Oc2cccc3c2C(=O)C=CC3=O)cc1,9.47,10.7
-0.158,> 100,CS(=O)(=O)Oc1cccc2c1C(=O)C=CC2=O,23.6,27.1

Activity [1] [V],IC50 (DNA topoisomerase 1) [µM],Structure (SMILES),IC50 (HeLa) [µM],IC50 (KB) [µM]
-0.212,> 100,O=C(Oc1cccc2c1C(=O)C=CC2=O)c1cccs1,5.21,6.23
-0.32,,CCCOC1=CC(=O)c2ccccc2C1=O,51.6,49.4
-0.197,,CCOc1ccc2c(c1)C(=O)C=CC2=O,25.1,21.4
-0.413,,O=C(OC1=CC(=O)c2ccccc2C1=O)c1cccs1,35.3,41.5
-0.305,,CCCCOC1=CC(=O)c2ccccc2C1=O,35.3,27
-0.165,,Cc1ccc(S(=O)(=O)OC2=CC(=O)c3ccccc3C2=O)cc1,12.2,18.8
-0.18,> 100,CC(=O)Oc1ccc2c(c1)C(=O)C=CC2=O,27.7,22.1
-0.416,,CC(=O)OC1=CC(=O)c2ccccc2C1=O,62.1,38.8
-0.174,,O=C(Oc1ccc2c(c1)C(=O)C=CC2=O)c1ccccc1,19.2,12.1
-0.16,> 100,O=C(Oc1ccc2c(c1)C(=O)C=CC2=O)c1ccco1,17.2,15.8
-0.194,,C=CCOc1ccc2c(c1)C(=O)C=CC2=O,27.2,10.2
-0.208,90.6,O=C(Oc1cccc2c1C(=O)C=CC2=O)c1ccccc1,13,6.47
-0.15,,CS(=O)(=O)Oc1ccc2c(c1)C(=O)C=CC2=O,17.7,11.6
-0.305,,"COC1=CC(=O)c2ccccc2C1=O [2-Methoxy-1,4-naphthoquinone]",29.8,17.3
-0.431,,O=C1C=C(O)C(=O)c2ccccc21 [LAWSONE],71.3,105

Structure (SMILES),Activity [1] [V],IC50 (DNA topoisomerase 1) [µM],IC50 (HeLa) [µM],IC50 (KB) [µM]
O=C1C=CC(=O)c2c(O)cccc21 [JUGLONE],-0.204,8.26,15.7,6.55
CC1=CC(=O)c2c(O)cccc2C1=O [PLUMBAGIN],-0.346,,10.2,9.83
